The record followed here is patent US9493537B2, “Compounds with reduced ring size for use in diagnosing and treating melanoma, including metastatic melanoma and methods related to same” (STC.UNM, priority 2009, dated 2016).

Data set [1] is described as follows: In vitro serum stability in mouse serum. It is filed as in vitro ADME. The note with it: 37° C., 24 h. Here is the method:
After the incubation, 10 μL of 0.5% EDTA aqueous solution was added into the reaction vial to scavenge potential unbound ^111In^3+ ions. The radiolabeled peptide was purified to single species by Waters RP-HPLC (Milford, Mass.) on a Grace Vydac C-18 reverse phase analytical column (Deerfield, Ill.) using a 20-minute gradient of 18-28% acetonitrile in 20 mM HCl aqueous solution with a flow rate of 1.0 mL/min. Purified peptide sample was purged with N2 gas for 20 minutes to remove the acetonitrile. The pH of final solution was adjusted to 7.4 with 0.1 N NaOH and sterile normal saline for animal studies.
Briefly, 50 μL of ^111InCl3 (37-74 MBq in 0.05 M HCl aqueous solution), 10 μL of 1 mg/mL peptide aqueous solution and 400 μL of 0.5 M NH4OAc (pH 4.5) were added into a reaction vial and incubated at 75° C. for 45 mins. After the incubation, 10 μL of 0.5% EDTA (ethylenediaminetetraacetic acid) aqueous solution was added into the reaction vial to scavenge potential unbound ^111In^3+ ions. The radiolabeled complexes were purified to single species by Waters RP-HPLC (Milford, Mass.) on a Grace Vydac C-18 reverse phase analytical column (Deerfield, Ill.) using the following gradient at a 1 mL/min flowrate. The mobile phase consisted of solvent A (20 mM HCl aqueous solution) and solvent B (100% CH3CN). The gradient was initiated and kept at 82:18 A/B for 3 mins followed by a linear gradient of 82:18 A/B to 72:28 A/B over 20 mins. Then, the gradient was changed from 72:28 A/B to 10:90 A/B over 3 mins followed by an additional 5 mins at 10:90 A/B. Thereafter, the gradient was changed from 10:90 AB to 82:18 AB over 3 mins. Each purified peptide sample was purged with N2 gas for 20 mins to remove the acetonitrile. The pH of the final solution was adjusted to 7.4 with 0.1 N NaOH and sterile saline for animal studies. In vitro serum stability of ^111In-DOTA-GGNle-CycMSHhex and ^111In-DOTA-GENle-CycMSHhex were determined by incubation in mouse serum at 37° C. for 24 h and monitored for degradation by RP-HPLC.

A further data set concerns B16/F1 melanoma. The experiment in a line: Biodistribution in B16/F1 melanoma-bearing C57 mice. It is filed as in vivo. As for the experimental part:
All the animal studies were conducted in compliance with Institutional Animal Care and Use Committee approval. The mice were housed five animals per cage in sterile micro-isolator cages in a temperature- and humidity-controlled room with a 12-h light/12-h dark schedule. […] C57 mice were subcutaneously inoculated on the right flank with 1×10^6 B16/F1 cells. The weight of tumors reached approximately 0.2 g 10 days post cell inoculation. […] Groups of 5 mice were sacrificed at 0.5, 2, 4 and 24 h post-injection, and tumors and organs of interest were harvested, weighed and counted. Blood values were taken as 6.5% of the whole-body weight. […] The mice were sacrificed at 2 h post-injection. The tumor and organs of interest were harvested, weighed and counted.
All animal studies were conducted in compliance with Institutional Animal Care and Use Committee approval. The pharmacokinetics of ^111In-DOTA-GGNle-CycMSHhex and ^111In-DOTA-GENle-CycMSHhex were determined in B16/F1 melanoma-bearing C57 female mice (Harlan, Indianapolis, Ind.). The C57 mice were subcutaneously inoculated with 1×10^6 B16/F1 cells on the right flank for each mouse to generate B16/F1 melanomas. Ten days post inoculation, the tumor weights reached approximately 0.2 g. Each melanoma-bearing mouse was injected with 0.037 MBq of ^111In-DOTA-GGNle-CycMSHhex or ^111In-DOTA-GENle-CycMSHhex via the tail vein. Groups of 5 mice were sacrificed at 0.5, 2, 4 and 24 h post-injection, and tumors and organs of interest were harvested, weighed and counted. Blood values were taken as 6.5% of the whole-body weight. The specificities of the tumor uptake of ^111In-DOTA-GGNle-CycMSHhex and ^111In-DOTA-GENle-CycMSHhex were determined by co-injecting 10 μg (6.07 nmol) of unlabeled NDP-MSH which is a linear α-MSH peptide analogue with picomolar MC1 receptor binding affinity.

A short description of data set [2]: Metabolites in urine and melanoma by RP-HPLC. It is filed as in vivo, C57 mice. The note with it: urine, 2 h post-injection. Here is the method:
The mouse used for the imaging study (2 h post-injection) described above was euthanized and the urine was collected for identifying the metabolites. The urinary sample was centrifuged at 16,000 g for 5 min prior to the HPLC analysis. The radioactive metabolite in the urine was analyzed by injecting aliquots of urine into the HPLC. A 20-minute gradient of 18-28% acetonitrile/20 mM HCl was used for the urine analysis.
Both melanoma and urine were collected from the mouse used for SPECT/CT imaging to analyze the metabolites of ^111In-DOTA-GGNle-CycMSHhex in melanoma and urine. The tumor was homogenized by a VWR homogenizer for 5 mins. Equal volume of ethanol was added into the tumor sample. The tumor sample was vortexed and then centrifuged at 16,000 g for 5 mins. The supernatant was transferred into a glass test tube and purged with N2 gas for 20 mins to remove the ethanol. Aliquots of the supernatant were injected into HPLC. The urinary sample was directly centrifuged at 16,000 g for 5 mins prior to the HPLC analysis. Thereafter, aliquots of the urine were injected into HPLC. The HPLC gradient described above was used for the analyses of metabolites.

Turning to `CCCC[C@H](NC(=O)CN1CCN(CC(=O)O)CCN(CC(=O)O)CCN(CC(=O)O)CC1)C(=O)N[C@H]1CC(=O)NCCCC[C@@H](C(N)=O)NC(=O)[C@H](Cc2c[nH]c3ccccc23)NC(=O)[C@H](CCCNC(=N)N)NC(=O)[C@@H](Cc2ccccc2)NC(=O)[C@H](Cc2c[nH]cn2)NC1=O` [^111In-DOTA-Nle-CycMSHhex, metal not drawn], in data set [1], the “serum stability by RP-HPLC” value is “stable”. Moreover, in the data set with B16/F1 melanoma (10 μg NDP-MSH, 2 h after dose administration), the “tumor uptake with NDP-MSH co-injection as percent of tumor uptake without” value is on record as 4.2%. Also, in the data set on B16/F1 melanoma (0.5 h post-injection), the Kidneys uptake came out at 16.20±4.32 % ID/g and the Tumor uptake was determined as 24.94±4.58 % ID/g. Also, in the data set on B16/F1 melanoma (2 h post-injection), the Tumor uptake worked out at 19.39±2.72 % ID/g; the “reduction of kidney uptake by L-lysine co-injection” value is recorded as 30%; the “renal uptake as percent of that of ^111In-DOTA-GlyGlu-CycMSH” value was found to be 72.8%; the “tumor uptake, times that of ^111In-DOTA-GlyGlu-CycMSH” value was determined as 1.86 times. Also, in the data set on B16/F1 melanoma (4 h post-injection), the Tumor uptake turned out to be 17.01±2.54 % ID/g, the “liver uptake as percent of that of ^99mTc(CO)3-pz-βAla-Nle-cyclo[Asp-His-D-Phe-Arg-Trp-Lys]-NH2” value worked out at 7.5%, the “renal uptake as percent of that of ^99mTc(CO)3-pz-βAla-Nle-cyclo[Asp-His-D-Phe-Arg-Trp-Lys]-NH2” value came out at 31.1% and the “renal uptake as percent of that of ^111In-DOTA-GlyGlu-CycMSH” value was 82.4%. Further, in the data set on B16/F1 melanoma (4 h post-injection), the “tumor uptake, times that of ^99mTc(CO)3-pz-βAla-Nle-cyclo[Asp-His-D-Phe-Arg-Trp-Lys]-NH2” value stood at 1.5 times. Also, in the data set on B16/F1 melanoma (24 h post-injection), the Kidneys uptake was 9.31±0.91 % ID/g, the Tumor uptake is 10.53±1.11 % ID/g and the “tumor activity at 2 h remaining in tumors at 24 h” value stood at 54.3%. For the same molecule, in data set [2], the “urinary metabolites by HPLC” value is “remained intact”.
